Common to all, as to test: cells
Holding throughout (design): species or system NCI human tumour cell line panel; NCI one-dose anti-proliferative screen, human tumour cell line panel, growth inhibition percent (GI%)

For one experiment, the system named is ACHN. The settings on record: Homo sapiens, ACHN; growth inhibition (GI%), single dose.
A further experiment deals with CCRF-CEM. The note with it: Homo sapiens, CCRF-CEM; growth inhibition (GI%), single dose.
The next experiment concerns EKVX. The note with it: Homo sapiens, EKVX; growth inhibition (GI%), single dose.
The next experiment has as its system HCT-15. The settings on record: Homo sapiens, HCT-15; growth inhibition (GI%), single dose.
Another experiment has as its system HOP-92. The settings on record: Homo sapiens, HOP-92; growth inhibition (GI%), single dose.
In another experiment the test system is IGROV1. The note with it: Homo sapiens, IGROV-1; growth inhibition (GI%), single dose.
Another experiment has as its system KM12. The note with it: Homo sapiens, KM12; growth inhibition (GI%), single dose.
The subject of another experiment is LOX IMVI. The settings on record: Homo sapiens, LOX IMVI; growth inhibition (GI%), single dose.
For a further experiment, the system named is MDA-MB-231/ATCC. The note with it: Homo sapiens, MDA-MB-231; growth inhibition (GI%), single dose.
The next experiment deals with MDA-MB-435. The note with it: Homo sapiens, MDA-MB-435; growth inhibition (GI%), single dose.
Another experiment has as its system MOLT-4. The settings on record: Homo sapiens, MOLT-4; growth inhibition (GI%), single dose.
The test system of another experiment is NCI-H23. The settings on record: Homo sapiens, NCI-H23; growth inhibition (GI%), single dose.
Another experiment has as its system OVCAR-4. The settings on record: Homo sapiens, OVCAR-4; growth inhibition (GI%), single dose.
The subject of a further experiment is SK-MEL-2. The note with it: Homo sapiens, SK-MEL-2; growth inhibition (GI%), single dose.
In another experiment the test system is SN12C. The settings on record: Homo sapiens, SN12C; growth inhibition (GI%), single dose.
The subject of a further experiment is SNB-19. The settings on record: Homo sapiens, SNB-19; growth inhibition (GI%), single dose.
The subject of the next experiment is SNB-75. The note with it: Homo sapiens, SNB-75; growth inhibition (GI%), single dose.
The next experiment concerns UACC-62. The note with it: Homo sapiens, UACC-62; growth inhibition (GI%), single dose.

As for `N#Cc1nnn(-c2ccc(S(N)(=O)=O)cc2)c1NCC(=O)c1ccccc1` [compound 7, 7], the inhibition at 10 µM in the experiment with ACHN turned out to be 0.6%; in the experiment on CCRF-CEM, 16.4%; in the experiment with EKVX, 9.2%; with HCT-15, 1.7%; in the experiment on HOP-92, 13.5%; in the experiment on IGROV1 it was 0.5%. For the same compound, the inhibition at 10 µM in the experiment with KM12 turned out to be 0.6%; in the experiment on LOX IMVI it was 5.9%; with MDA-MB-231/ATCC it was 4.9%; with MDA-MB-435, 8.3%; with MOLT-4, 10.2%; in the experiment with NCI-H23, 2.1%. Also, the inhibition at 10 µM in the experiment with OVCAR-4 came to 10.2%; in the experiment on SK-MEL-2 it was 2.2%; in the experiment with SN12C, 2.9%; with SNB-19, 7.8%; in the experiment with SNB-75, 20.1%; in the experiment with UACC-62 it was 4%.

One may read the inhibition as the change of the read-out against control, counted positive when it falls.

The values above are taken from PMC6171417, “Carbonic anhydrase inhibition with a series of novel benzenesulfonamide-triazole conjugates” (Journal of Enzyme Inhibition and Medicinal Chemistry, 2018).
